Measurements taken from patent publication US10589001B2, “Pharmaceutical formulation for use in spinal fusion” (Kuros Biosurgery AG, priority 2011, dated 2020).

System: Crossbred Suffolk Sheep
Assay: Sheep transforaminal lumbar interbody fusion model
Type: in vivo
Method: As in example 1, PTH (i.e. TGplPTH1-34) was tested alone or with granular material. The same materials were used as in example 1, and the preparation of the product followed the same protocol as for example 1, but in this study the concentrations of TGplPTH1-34 ranged from 0.2 mg/mL to 0.7 mg/mL of the fibrin matrix. The treatment was placed only inside the interbody cage. No additional test material was placed around the cage, as in example 1.
A total of 28 Crossbred Suffolk Sheep (Castrated Weathers) with an average weight of 57 kg and age ranging from 3 to 6 years of age were chosen as experimental animals. The animals were divided into 7 groups. One group (the positive control group) was treated with autograft and the remaining groups were treated with a fibrin matrix with or without granular material, containing different concentrations of TGplPTH1-34. Groups were followed for 16 weeks, after which the animals were sacrificed. Animal care and use was conducted in accordance with federal regulations as outlined in the Animal Welfare Act. Surgery, perioperative care, housing, sanitation practices, husbandry, and veterinary care followed the recommendations of the NIH Guide for the Care and Use of Laboratory Animals (HHS, NIH Pub. No. 85-23, 1985). Animal care personnel were qualified, through training and experience, to perform required duties. […]

## CC[C@H](C)[C@H](NC(=O)[C@H](CCC(=O)O)NC(=O)[C@H](CO)NC(=O)[C@@H](NC(=O)[C@H](CO)NC(=O)[C@H](CCCNC(=N)N)NC(=O)[C@H](CC(N)=O)NC(=O)[C@H](CCCCN)NC(=O)[C@H](Cc1ccc(O)cc1)NC(=O)[C@H](CC(C)C)NC(=O)[C@@H]1CCCN1C(=O)[C@H](CO)NC(=O)[C@@H](NC(=O)[C@H](CCC(N)=O)NC(=O)[C@H](CCC(=O)O)NC(=O)[C@H](CCC(N)=O)NC(=O)[C@@H](N)CC(N)=O)C(C)C)C(C)C)C(=O)N[C@@H](CCC(N)=O)C(=O)N[C@@H](CC(C)C)C(=O)N[C@@H](CCSC)C(=O)N[C@@H](Cc1c[nH]cn1)C(=O)N[C@@H](CC(N)=O)C(=O)N[C@@H](CC(C)C)C(=O)NCC(=O)N[C@@H](CCCCN)C(=O)N[C@@H](Cc1c[nH]cn1)C(=O)N[C@@H](CC(C)C)C(=O)N[C@@H](CC(N)=O)C(=O)N[C@@H](CO)C(=O)N[C@@H](CCSC)C(=O)N[C@@H](CCC(=O)O)C(=O)N[C@@H](CCCNC(=N)N)C(=O)N[C@H](C(=O)N[C@@H](CCC(=O)O)C(=O)N[C@@H](Cc1c[nH]c2ccccc12)C(=O)N[C@@H](CC(C)C)C(=O)N[C@@H](CCCNC(=N)N)C(=O)N[C@@H](CCCCN)C(=O)N[C@@H](CCCCN)C(=O)N[C@@H](CC(C)C)C(=O)N[C@@H](CCC(N)=O)C(=O)N[C@@H](CC(=O)O)C(=O)N[C@H](C(=O)N[C@@H](Cc1c[nH]cn1)C(=O)N[C@@H](CC(N)=O)C(=O)N[C@@H](Cc1ccccc1)C(=O)O)C(C)C)C(C)C [TGplPTH1-34]
Any of the doses (0.2-0.7 mg/mL) or formulations, 16 weeks
  toxicity during the treatment period: No toxicity was observed
In vivo
  histopathologic review: no signs of osseous pathology
